Key:
Assay in all cases: KINOMEscan competition binding
Details in all cases: compound 10.0 µM
[1] = target: MYO3A (human) (UniProt Q8NEV4)
[2] = target: PAK3 (human) (UniProt O75914)
[3] = target: RIPK2 (human) (UniProt O43353)
[4] = target: LCK (human) (UniProt P06239)
[5] = target: SRMS (human) (UniProt Q9H3Y6)
[6] = target: CDK14 (human) (UniProt O94921)
[7] = target: TEK (human) (UniProt Q02763)
[8] = target: TNIK (human) (UniProt Q9UKE5)
[9] = target: LYN (human) (UniProt P07948)
[10] = target: PIM2 (human) (UniProt Q9P1W9)
PIM2 (human), sequence (Q9P1W9 whole entry, looked up): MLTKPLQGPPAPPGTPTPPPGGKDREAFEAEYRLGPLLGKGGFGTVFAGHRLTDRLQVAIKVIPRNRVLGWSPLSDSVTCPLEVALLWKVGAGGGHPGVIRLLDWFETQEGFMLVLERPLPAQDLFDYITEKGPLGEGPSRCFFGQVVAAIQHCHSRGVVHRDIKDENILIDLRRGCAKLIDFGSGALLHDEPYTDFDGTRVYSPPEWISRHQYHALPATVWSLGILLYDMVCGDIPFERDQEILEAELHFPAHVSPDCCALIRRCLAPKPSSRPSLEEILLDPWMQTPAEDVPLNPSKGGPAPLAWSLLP

[11] = target: PLK4 (human) (UniProt O00444)
[12] = target: CDK5 (human) (UniProt Q00535)
[13] = target: NEK5 (human) (UniProt Q6P3R8)
NEK5 (human), sequence (Q6P3R8 whole entry, looked up): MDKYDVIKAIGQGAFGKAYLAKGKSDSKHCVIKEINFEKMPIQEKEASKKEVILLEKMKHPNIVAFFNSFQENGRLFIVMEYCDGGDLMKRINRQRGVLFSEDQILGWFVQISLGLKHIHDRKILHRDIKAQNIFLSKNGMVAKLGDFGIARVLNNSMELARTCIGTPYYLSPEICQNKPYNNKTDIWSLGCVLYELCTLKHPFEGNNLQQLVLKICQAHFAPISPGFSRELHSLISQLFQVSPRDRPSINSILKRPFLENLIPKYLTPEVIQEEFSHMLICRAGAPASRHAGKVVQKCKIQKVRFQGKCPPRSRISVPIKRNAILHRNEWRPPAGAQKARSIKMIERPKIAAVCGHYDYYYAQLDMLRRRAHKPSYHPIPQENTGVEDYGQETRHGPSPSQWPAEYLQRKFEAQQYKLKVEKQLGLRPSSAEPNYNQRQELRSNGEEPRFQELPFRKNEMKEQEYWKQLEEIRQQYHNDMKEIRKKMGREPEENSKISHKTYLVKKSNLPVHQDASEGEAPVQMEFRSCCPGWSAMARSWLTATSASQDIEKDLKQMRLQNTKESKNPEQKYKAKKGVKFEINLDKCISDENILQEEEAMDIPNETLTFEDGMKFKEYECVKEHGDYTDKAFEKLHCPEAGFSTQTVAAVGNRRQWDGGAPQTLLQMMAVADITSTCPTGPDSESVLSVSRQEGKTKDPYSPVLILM

[14] = target: MAPK12 (human) (UniProt P53778)
MAPK12 (human), sequence (P53778 whole entry, looked up): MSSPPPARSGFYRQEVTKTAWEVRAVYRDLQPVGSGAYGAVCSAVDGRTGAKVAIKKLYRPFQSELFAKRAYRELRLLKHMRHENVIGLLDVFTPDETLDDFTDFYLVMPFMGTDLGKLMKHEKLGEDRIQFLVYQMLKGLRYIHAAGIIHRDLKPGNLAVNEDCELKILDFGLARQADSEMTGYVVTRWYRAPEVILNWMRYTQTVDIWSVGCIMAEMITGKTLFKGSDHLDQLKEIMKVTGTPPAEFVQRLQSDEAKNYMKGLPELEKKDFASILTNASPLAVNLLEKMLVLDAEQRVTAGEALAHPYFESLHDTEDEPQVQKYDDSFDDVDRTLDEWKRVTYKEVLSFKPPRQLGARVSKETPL

[15] = target: MAP3K3 (human) (UniProt Q99759)
[16] = target: MAPKAPK5 (human) (UniProt Q8IW41)
[17] = target: JAK1 JH1 catalytic (human) (UniProt P23458)
[18] = target: RPS6KA1 KD2 (human) (UniProt Q15418)
[19] = target: AXL (human) (UniProt P30530)
[20] = target: TNNI3K (human) (UniProt Q59H18)
[21] = target: PRKD1 (human) (UniProt Q15139)
[22] = target: SLK (human) (UniProt Q9H2G2)
[23] = target: EPHA2 (human) (UniProt P29317)
EPHA2 (human), sequence (P29317 whole entry, looked up): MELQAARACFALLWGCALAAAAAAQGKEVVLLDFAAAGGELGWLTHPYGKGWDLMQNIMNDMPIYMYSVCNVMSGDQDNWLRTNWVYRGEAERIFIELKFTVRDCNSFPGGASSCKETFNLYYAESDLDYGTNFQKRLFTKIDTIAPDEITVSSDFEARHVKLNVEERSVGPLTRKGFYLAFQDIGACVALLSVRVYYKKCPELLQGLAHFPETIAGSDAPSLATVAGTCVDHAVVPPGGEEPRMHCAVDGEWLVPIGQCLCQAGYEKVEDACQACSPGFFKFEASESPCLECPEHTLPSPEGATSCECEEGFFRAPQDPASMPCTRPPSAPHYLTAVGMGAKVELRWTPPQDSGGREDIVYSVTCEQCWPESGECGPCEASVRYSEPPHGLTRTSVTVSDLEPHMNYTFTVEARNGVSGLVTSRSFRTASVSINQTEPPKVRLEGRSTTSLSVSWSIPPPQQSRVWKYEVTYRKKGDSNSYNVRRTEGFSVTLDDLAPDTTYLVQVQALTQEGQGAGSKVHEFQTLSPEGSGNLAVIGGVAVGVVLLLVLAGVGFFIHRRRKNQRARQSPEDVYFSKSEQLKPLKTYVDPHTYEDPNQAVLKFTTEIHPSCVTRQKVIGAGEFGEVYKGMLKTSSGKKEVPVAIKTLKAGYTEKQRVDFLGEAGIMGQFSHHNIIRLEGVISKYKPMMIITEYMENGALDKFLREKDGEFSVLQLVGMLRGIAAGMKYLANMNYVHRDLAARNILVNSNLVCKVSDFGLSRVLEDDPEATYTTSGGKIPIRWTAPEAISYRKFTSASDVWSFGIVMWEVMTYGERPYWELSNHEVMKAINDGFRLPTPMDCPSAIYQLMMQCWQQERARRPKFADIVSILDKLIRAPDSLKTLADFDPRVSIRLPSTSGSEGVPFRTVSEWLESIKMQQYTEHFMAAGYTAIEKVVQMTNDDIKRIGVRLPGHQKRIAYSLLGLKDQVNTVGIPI

[24] = target: NUAK2 (human) (UniProt Q9H093)
NUAK2 (human), sequence (Q9H093 whole entry, looked up): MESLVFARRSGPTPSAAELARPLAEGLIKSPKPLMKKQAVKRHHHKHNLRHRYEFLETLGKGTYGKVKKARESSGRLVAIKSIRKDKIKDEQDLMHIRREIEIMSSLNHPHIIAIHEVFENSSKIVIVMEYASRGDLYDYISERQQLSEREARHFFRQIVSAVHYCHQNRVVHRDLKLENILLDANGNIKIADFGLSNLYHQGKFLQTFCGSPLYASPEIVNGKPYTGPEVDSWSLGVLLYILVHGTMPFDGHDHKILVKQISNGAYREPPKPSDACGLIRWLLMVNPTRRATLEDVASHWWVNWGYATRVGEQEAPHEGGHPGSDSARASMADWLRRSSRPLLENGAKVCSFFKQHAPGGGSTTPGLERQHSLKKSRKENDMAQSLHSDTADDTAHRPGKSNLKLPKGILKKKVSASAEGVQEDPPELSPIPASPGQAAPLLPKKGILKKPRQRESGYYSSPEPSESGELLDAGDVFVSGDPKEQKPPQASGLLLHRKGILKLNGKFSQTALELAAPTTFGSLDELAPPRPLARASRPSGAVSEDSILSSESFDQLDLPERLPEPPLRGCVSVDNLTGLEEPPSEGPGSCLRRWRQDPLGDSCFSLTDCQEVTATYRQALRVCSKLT

[25] = target: IKBKE (human) (UniProt Q14164)
[26] = target: BRSK2 (human) (UniProt Q8IWQ3)
[27] = target: CLK2 (human) (UniProt P49760)
CLK2 (human), sequence (P49760 whole entry, looked up): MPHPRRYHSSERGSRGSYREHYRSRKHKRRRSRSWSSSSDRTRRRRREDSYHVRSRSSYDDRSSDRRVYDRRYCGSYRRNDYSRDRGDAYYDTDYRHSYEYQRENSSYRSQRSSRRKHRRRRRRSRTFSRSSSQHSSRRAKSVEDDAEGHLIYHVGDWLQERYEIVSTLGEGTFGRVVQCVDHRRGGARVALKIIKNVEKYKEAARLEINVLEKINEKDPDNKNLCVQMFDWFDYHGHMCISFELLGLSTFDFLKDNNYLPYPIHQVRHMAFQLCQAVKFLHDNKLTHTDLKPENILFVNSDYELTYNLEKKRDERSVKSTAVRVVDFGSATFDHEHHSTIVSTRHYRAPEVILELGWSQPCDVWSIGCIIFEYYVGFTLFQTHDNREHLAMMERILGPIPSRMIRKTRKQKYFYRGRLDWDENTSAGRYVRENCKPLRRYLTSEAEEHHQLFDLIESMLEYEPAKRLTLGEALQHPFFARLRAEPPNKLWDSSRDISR

[28] = target: MARK2 (human) (UniProt Q7KZI7)
MARK2 (human), sequence (Q7KZI7 whole entry, looked up): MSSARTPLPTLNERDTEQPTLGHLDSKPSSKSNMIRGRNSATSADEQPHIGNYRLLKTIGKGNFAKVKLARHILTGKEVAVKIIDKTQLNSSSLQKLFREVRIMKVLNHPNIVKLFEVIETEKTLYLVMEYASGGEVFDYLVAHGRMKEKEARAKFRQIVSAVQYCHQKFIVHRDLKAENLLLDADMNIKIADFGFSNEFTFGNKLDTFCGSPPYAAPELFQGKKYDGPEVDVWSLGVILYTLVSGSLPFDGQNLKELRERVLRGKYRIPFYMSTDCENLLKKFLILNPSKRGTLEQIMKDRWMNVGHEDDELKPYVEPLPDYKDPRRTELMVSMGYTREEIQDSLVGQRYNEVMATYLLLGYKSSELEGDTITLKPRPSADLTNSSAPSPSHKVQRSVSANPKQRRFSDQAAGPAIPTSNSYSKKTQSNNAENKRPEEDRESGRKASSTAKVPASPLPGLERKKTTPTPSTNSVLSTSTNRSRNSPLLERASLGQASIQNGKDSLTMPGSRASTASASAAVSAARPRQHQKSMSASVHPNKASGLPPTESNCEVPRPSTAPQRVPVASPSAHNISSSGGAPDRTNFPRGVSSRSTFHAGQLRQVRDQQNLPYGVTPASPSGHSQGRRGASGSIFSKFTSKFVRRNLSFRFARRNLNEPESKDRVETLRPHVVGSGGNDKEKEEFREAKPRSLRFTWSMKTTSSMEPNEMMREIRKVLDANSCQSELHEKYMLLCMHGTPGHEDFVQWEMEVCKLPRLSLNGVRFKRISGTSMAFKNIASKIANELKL

[29] = target: EPHA8 (human) (UniProt P29322)
[30] = target: RIPK1 (human) (UniProt Q13546)
[31] = target: IKBKB (human) (UniProt O14920)
[32] = target: PDGFRB (human) (UniProt P09619)
[33] = target: MAPK3 (human) (UniProt P27361)
[34] = target: STK25 (human) (UniProt O00506)
[35] = target: MAP4K5 (human) (UniProt Q9Y4K4)
[36] = target: CDK9 (human) (UniProt P50750)
[37] = target: MAP2K2 (human) (UniProt P36507)
[38] = target: PDPK1 (human) (UniProt O15530)
[39] = target: CSNK1E (human) (UniProt P49674)
[40] = target: RPS6KA2 KD2 (human) (UniProt Q15349)

PAK3 (human), sequence (O75914 whole entry, looked up): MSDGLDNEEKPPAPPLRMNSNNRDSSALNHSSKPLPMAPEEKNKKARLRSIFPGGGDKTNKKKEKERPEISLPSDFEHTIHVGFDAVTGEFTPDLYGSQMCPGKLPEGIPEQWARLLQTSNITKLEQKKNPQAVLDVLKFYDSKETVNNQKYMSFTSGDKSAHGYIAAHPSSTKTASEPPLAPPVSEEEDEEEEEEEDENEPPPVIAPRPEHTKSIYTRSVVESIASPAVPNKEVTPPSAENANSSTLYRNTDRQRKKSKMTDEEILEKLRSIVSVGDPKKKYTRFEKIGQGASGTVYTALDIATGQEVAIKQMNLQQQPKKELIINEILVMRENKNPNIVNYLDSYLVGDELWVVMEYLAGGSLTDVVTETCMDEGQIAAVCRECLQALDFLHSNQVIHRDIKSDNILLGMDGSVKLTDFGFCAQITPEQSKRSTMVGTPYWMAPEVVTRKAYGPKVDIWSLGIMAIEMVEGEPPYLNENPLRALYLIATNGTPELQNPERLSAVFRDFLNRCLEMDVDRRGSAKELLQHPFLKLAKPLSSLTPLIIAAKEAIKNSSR

Compound `C=CC(=O)Nc1cc(NC(=O)c2ccc(C)c(NC(=O)c3ccno3)c2)cc(C(F)(F)F)c1` has a kinase still bound, per cent of control [1] of 93%, a kinase still bound, per cent of control [2] of 100% and a kinase still bound, per cent of control [3] of 100%. The kinase still bound, per cent of control [4] was 45%, the kinase still bound, per cent of control [5] was 77% and the kinase still bound, per cent of control [6] was 93%. The kinase still bound, per cent of control [7] was 100%, the kinase still bound, per cent of control [8] was 100% and the kinase still bound, per cent of control [9] was 34%. The kinase still bound, per cent of control [10] was 96%, the kinase still bound, per cent of control [11] was 91% and the kinase still bound, per cent of control [12] was 90%. For the same compound, the kinase still bound, per cent of control [13] was 100%, the kinase still bound, per cent of control [14] was 96% and the kinase still bound, per cent of control [15] was 96%. For the same compound, the kinase still bound, per cent of control [16] was 83%, the kinase still bound, per cent of control [17] was 100% and the kinase still bound, per cent of control [18] was 100%. For the same compound, the kinase still bound, per cent of control [19] was 100%, the kinase still bound, per cent of control [20] was 54% and the kinase still bound, per cent of control [21] was 100%. The kinase still bound, per cent of control [22] was 100%, the kinase still bound, per cent of control [23] was 28% and the kinase still bound, per cent of control [24] was 97%. For the same compound, the kinase still bound, per cent of control [25] was 100%, the kinase still bound, per cent of control [26] was 100% and the kinase still bound, per cent of control [27] was 80%. For the same compound, the kinase still bound, per cent of control [28] was 100%, the kinase still bound, per cent of control [29] was 3.6% and the kinase still bound, per cent of control [30] was 100%. The kinase still bound, per cent of control [31] was 90%, the kinase still bound, per cent of control [32] was 1.2% and the kinase still bound, per cent of control [33] was 97%. For the same compound, the kinase still bound, per cent of control [34] was 100%, the kinase still bound, per cent of control [35] was 100% and the kinase still bound, per cent of control [36] was 100%. For the same compound, the kinase still bound, per cent of control [37] was 93%, the kinase still bound, per cent of control [38] was 94% and the kinase still bound, per cent of control [39] was 100%. For the same compound, the kinase still bound, per cent of control [40] was 100%.

Source: the kinase profiling compilation of Christmann-Franck et al. (2016)
